Laboratory results taken from ChEMBL document CHEMBL1201862, “PubChem BioAssay data set” (2004).
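Five concentrations, 48 hours, 96-well plates. The concentration for 50% growth inhibition is given as GI50.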 Active and inactive are the calls of the source. Cut-off read from the data, not from the text of the source: active = GI50 up to about 1.1 µM and inactive = higher.

Assays:
Test in all cases: growth of human tumour cells (NCI), 48 h
[1] = system: 786-0
[2] = system: A498
[3] = system: A549
[4] = system: ACHN
[5] = system: BT-549
[6] = system: CAKI-1
[7] = system: CCRF-CEM
[8] = system: COLO 205
[9] = system: DU-145
[10] = system: EKVX
[11] = system: HCC 2998
[12] = system: HCT-116
[13] = system: HCT-15
[14] = system: HL-60
[15] = system: HOP-62
[16] = system: HOP-92
[17] = system: HT-29
[18] = system: Hs-578T
[19] = system: IGROV-1
[20] = system: K562
[21] = system: KM12
[22] = system: LOX IMVI
[23] = system: M14
[24] = system: MCF7
[25] = system: MDA-MB-231
[26] = system: MDA-MB-435
[27] = system: MDA-N
[28] = system: MOLT-4
[29] = system: Malme-3M
[30] = system: NCI-H23
[31] = system: NCI-H460
[32] = system: NCI-H522
[33] = system: NCI/ADR-RES
[34] = system: OVCAR-3
[35] = system: OVCAR-4
[36] = system: OVCAR-5
[37] = system: OVCAR-8
[38] = system: PC-3
[39] = system: RPMI-8226
[40] = system: RXF 393
[41] = system: SF-268
[42] = system: SF-295
[43] = system: SF-539
[44] = system: SK-MEL-28
[45] = system: SK-MEL-2
[46] = system: SK-MEL-5
[47] = system: SN12C
[48] = system: SNB-19
[49] = system: SNB-75
[50] = system: SR
[51] = system: SW-620
[52] = system: T47D
[53] = system: TK-10
[54] = system: U-251
[55] = system: UACC-257
[56] = system: UACC-62
[57] = system: UO-31
[58] = system: NCI-H226
[59] = system: SK-OV-3

In the case of `CCS(=O)(=O)CCn1c(=O)c2c(ncn2C)n(C)c1=O`, the GI50 [1] is reported as > 100 µM (inactive), the GI50 [2] is reported as > 100 µM (inactive) and the GI50 [3] is reported as > 100 µM (inactive). For the same molecule, the GI50 [4] was > 100 µM (inactive), the GI50 [5] was > 100 µM (inactive) and the GI50 [6] was > 100 µM (inactive). The GI50 [7] was > 100 µM (inactive), the GI50 [8] was > 100 µM (inactive) and the GI50 [9] was > 100 µM (inactive). The GI50 [10] was > 100 µM (inactive), the GI50 [11] was > 100 µM (inactive) and the GI50 [12] was > 100 µM (inactive). For the same molecule, the GI50 [13] was over 100 µM, the GI50 [14] was > 100 µM (inactive) and the GI50 [15] was > 100 µM (inactive). For the same molecule, the GI50 [16] was > 100 µM (inactive), the GI50 [17] was > 100 µM (inactive) and the GI50 [18] was > 100 µM (inactive). For the same molecule, the GI50 [19] was > 100 µM (inactive), the GI50 [20] was > 100 µM (inactive) and the GI50 [21] was > 100 µM (inactive). The GI50 [22] was > 100 µM (inactive), the GI50 [23] was > 100 µM (inactive) and the GI50 [24] was > 100 µM (inactive). The GI50 [25] was > 100 µM (inactive), the GI50 [26] was > 100 µM (inactive) and the GI50 [27] was > 100 µM (inactive). The GI50 [28] was > 100 µM (inactive), the GI50 [29] was > 100 µM (inactive) and the GI50 [30] was > 100 µM (inactive). For the same molecule, the GI50 [31] was > 100 µM (inactive), the GI50 [32] was > 100 µM (inactive) and the GI50 [33] was > 100 µM (inactive). The GI50 [34] was > 100 µM (inactive), the GI50 [35] was > 100 µM (inactive) and the GI50 [36] was > 100 µM (inactive). For the same molecule, the GI50 [37] was > 100 µM (inactive), the GI50 [38] was > 100 µM (inactive) and the GI50 [39] was > 100 µM (inactive). The GI50 [40] was > 100 µM (inactive), the GI50 [41] was > 100 µM (inactive) and the GI50 [42] was > 100 µM (inactive). For the same molecule, the GI50 [43] was > 100 µM (inactive), the GI50 [44] was > 100 µM (inactive) and the GI50 [45] was > 100 µM (inactive). The GI50 [46] was > 100 µM (inactive), the GI50 [47] was > 100 µM (inactive) and the GI50 [48] was > 100 µM (inactive). For the same molecule, the GI50 [49] was > 100 µM (inactive), the GI50 [50] was > 100 µM (inactive) and the GI50 [51] was > 100 µM (inactive). For the same molecule, the GI50 [52] was > 100 µM (inactive), the GI50 [53] was > 100 µM (inactive) and the GI50 [54] was > 100 µM (inactive). The GI50 [55] was 45.4 µM (inactive), the GI50 [56] was > 100 µM (inactive) and the GI50 [57] was > 100 µM (inactive).
In the case of `Cc1nc(N)c(N2CCN(CN)CC2)c(O)n1`, the GI50 [1] is reported as > 100 µM (inactive), the GI50 [2] is reported as > 100 µM (inactive) and the GI50 [3] is reported as > 100 µM (inactive). For the same molecule, the GI50 [4] was > 100 µM (inactive), the GI50 [5] was > 100 µM (inactive) and the GI50 [7] was > 100 µM (inactive). For the same molecule, the GI50 [8] was > 100 µM (inactive), the GI50 [9] was > 100 µM (inactive) and the GI50 [10] was > 100 µM (inactive). The GI50 [11] was > 100 µM (inactive), the GI50 [12] was > 100 µM (inactive) and the GI50 [13] was over 100 µM. For the same molecule, the GI50 [14] was > 100 µM (inactive), the GI50 [15] was > 100 µM (inactive) and the GI50 [17] was > 100 µM (inactive). For the same molecule, the GI50 [18] was > 100 µM (inactive), the GI50 [20] was > 100 µM (inactive) and the GI50 [21] was > 100 µM (inactive). The GI50 [22] was > 100 µM (inactive), the GI50 [23] was > 100 µM (inactive) and the GI50 [24] was > 100 µM (inactive). The GI50 [25] was > 100 µM (inactive), the GI50 [26] was > 100 µM (inactive) and the GI50 [27] was > 100 µM (inactive). The GI50 [28] was > 100 µM (inactive), the GI50 [29] was > 100 µM (inactive) and the GI50 [58] was > 100 µM (inactive). The GI50 [30] was > 100 µM (inactive), the GI50 [31] was > 100 µM (inactive) and the GI50 [32] was > 100 µM (inactive). For the same molecule, the GI50 [33] was > 100 µM (inactive), the GI50 [34] was > 100 µM (inactive) and the GI50 [35] was > 100 µM (inactive). For the same molecule, the GI50 [36] was > 100 µM (inactive), the GI50 [37] was > 100 µM (inactive) and the GI50 [38] was > 100 µM (inactive). The GI50 [39] was > 100 µM (inactive), the GI50 [41] was > 100 µM (inactive) and the GI50 [42] was > 100 µM (inactive). The GI50 [43] was > 100 µM (inactive), the GI50 [44] was > 100 µM (inactive) and the GI50 [45] was > 100 µM (inactive). For the same molecule, the GI50 [47] was > 100 µM (inactive), the GI50 [48] was > 100 µM (inactive) and the GI50 [49] was > 100 µM (inactive). For the same molecule, the GI50 [50] was > 100 µM (inactive), the GI50 [51] was > 100 µM (inactive) and the GI50 [52] was > 100 µM (inactive). For the same molecule, the GI50 [53] was > 100 µM (inactive), the GI50 [54] was > 100 µM (inactive) and the GI50 [55] was > 100 µM (inactive). For the same molecule, the GI50 [57] was > 100 µM (inactive).
In the case of `CCOC(=O)Nc1cc2c(c(N)n1)N=C(c1ccc3ccccc3c1)CN2`, the GI50 [1] is reported as 0.0809 µM (active), the GI50 [2] is reported as 0.861 µM (active) and the GI50 [3] is reported as 0.299 µM (active). The GI50 [4] was 0.258 µM (active), the GI50 [5] was 1.75 µM (inactive) and the GI50 [6] was 1.25 µM (inactive). The GI50 [7] was 0.015 µM (active), the GI50 [8] was 0.499 µM (active) and the GI50 [9] was 0.101 µM (active). The GI50 [10] was 2.51 µM (inactive), the GI50 [11] was 0.215 µM (active) and the GI50 [12] was 0.0225 µM (active). For the same molecule, the GI50 [13] was 0.0189 µM, the GI50 [14] was 0.0167 µM (active) and the GI50 [15] was 0.0564 µM (active). For the same molecule, the GI50 [16] was 0.275 µM (active), the GI50 [17] was 0.301 µM (active) and the GI50 [18] was 0.0302 µM (active). For the same molecule, the GI50 [19] was 0.644 µM (active), the GI50 [20] was < 0.01 µM (active) and the GI50 [21] was 0.0715 µM (active). For the same molecule, the GI50 [22] was 0.0559 µM (active), the GI50 [23] was 0.617 µM (active) and the GI50 [24] was 0.192 µM (active). The GI50 [25] was 2.39 µM (inactive), the GI50 [26] was < 0.01 µM (active) and the GI50 [27] was < 0.01 µM (active). The GI50 [28] was 0.0226 µM (active), the GI50 [29] was 0.292 µM (active) and the GI50 [58] was 0.34 µM (active). The GI50 [30] was 0.325 µM (active), the GI50 [31] was 0.0918 µM (active) and the GI50 [32] was 0.0769 µM (active). For the same molecule, the GI50 [33] was 0.0335 µM (active), the GI50 [34] was 0.0494 µM (active) and the GI50 [35] was 1.44 µM (inactive). The GI50 [36] was 10.5 µM (inactive), the GI50 [37] was < 0.0208 µM (active) and the GI50 [38] was 0.0407 µM (active). For the same molecule, the GI50 [40] was 0.105 µM (active), the GI50 [41] was 1.92 µM (inactive) and the GI50 [42] was 0.0281 µM (active). For the same molecule, the GI50 [43] was 0.08 µM (active), the GI50 [44] was 1.95 µM (inactive) and the GI50 [45] was 0.373 µM (active). For the same molecule, the GI50 [46] was < 0.0164 µM (active), the GI50 [59] was 0.2 µM (active) and the GI50 [47] was 0.0711 µM (active). For the same molecule, the GI50 [48] was 0.0614 µM (active), the GI50 [49] was 0.111 µM (active) and the GI50 [50] was 0.0329 µM (active). The GI50 [51] was 0.0485 µM (active), the GI50 [52] was 22.8 µM (inactive) and the GI50 [53] was 4.36 µM (inactive). The GI50 [54] was 0.0339 µM (active), the GI50 [55] was 0.815 µM (active) and the GI50 [56] was 0.0328 µM (active). For the same molecule, the GI50 [57] was 0.301 µM (active).
